# Laboratory results reported in patent US20240408086A1, “USE OF LUVADAXISTAT FOR THE TREATMENT OF COGNITIVE IMPAIRMENT” (TAKEDA PHARMACEUTICAL COMPANY LIMITED, priority 2021, published 2024).
# Read-outs that look alike come from different tables or passages of the source.
# Test system: adult patients with persistent negative symptoms of schizophrenia
# [1] = 50 mg once daily, count (%) of N = 58
# [2] = 125 mg once daily, count (%) of N = 56
# [3] = 500 mg once daily, count (%) of N = 55
# Procedure: Additionally, eligible participants were receiving stable antipsychotic treatment at a 2-6 mg daily dose of risperidone equivalents, and were allowed to be treated with a second antipsychotic if it was used as a hypnotic at a subtherapeutic dose (subject to sponsor approval). […] To overcome potential confounding effects, those with depressive and extrapyramidal symptoms were excluded.
# Dose selection for this study was based on target occupancy and elevation of D-serine.
# The study comprised a 28-day screening period, a 14-day single-blinded placebo run-in period to prospectively evaluate drug adherence and BNSS score stability, and a 12-week double-blinded treatment period (FIG. 5). […] Demographics, baseline characteristics, and efficacy assessments were based on the full analysis set, which included randomized participants who received at least one dose of the study drug during the treatment period (Table 6). The safety analysis set included randomized participants who received at least one dose of the study drug.
# Safety endpoints included assessment of treatment-emergent adverse events (TEAEs).
smiles,measurement,setting,value
"O=c1[nH]nc(CCc2ccc(C(F)(F)F)cc2)cc1O [Compound (I), luvadaxistat]",Frequent TEAEs: Headache,[1],0
same,Frequent TEAEs: Increased weight,[1],2 (3.4)
same,Frequent TEAEs: Insomnia,[1],0
same,Patients with Mild TEAEs,[1],10 (17.2)
same,Patients with Moderate TEAEs,[1],2 (3.4)
same,Patients with Severe TEAEs,[1],1 (1.7)
same,Patients with any TEAEs,[1],13 (22.4)
same,Serious adverse events,[1],0
same,TEAEs leading to study discontinuation,[1],0
same,TEAEs related to study drug,[1],0
same,Deaths,"50 mg once daily, count of N = 58",0
same,"Severe event of chronic cholecystitis, number of participants","50 mg once daily, not considered drug related",1
same,"Severe schizophrenia (drug-related serious TEAE), number of participants",125 mg once daily,one
same,Frequent TEAEs: Headache,[2],5 (8.9)
same,Frequent TEAEs: Increased weight,[2],0
same,Frequent TEAEs: Insomnia,[2],2 (3.6)
same,Patients with Mild TEAEs,[2],13 (23.2)
same,Patients with Moderate TEAEs,[2],3 (5.4)
same,Patients with Severe TEAEs,[2],1 (1.8)
same,Patients with any TEAEs,[2],17 (30.4)
same,Serious adverse events,[2],1 (1.8)
same,TEAEs leading to study discontinuation,[2],1 (1.8)
same,TEAEs related to study drug,[2],4 (7.1)
same,Deaths,"125 mg once daily, count of N = 56",0
same,Frequent TEAEs: Headache,[3],2 (3.6)
same,Frequent TEAEs: Increased weight,[3],0
same,Frequent TEAEs: Insomnia,[3],2 (3.6)
same,Patients with Mild TEAEs,[3],8 (14.5)
same,Patients with Moderate TEAEs,[3],8 (14.5)
same,Patients with Severe TEAEs,[3],0
same,Patients with any TEAEs,[3],16 (29.1)
same,Serious adverse events,[3],0
same,TEAEs leading to study discontinuation,[3],1 (1.8)
same,TEAEs related to study drug,[3],7 (12.7)
same,Deaths,"500 mg once daily, count of N = 55",0
